ChEMBL document CHEMBL1144205, “Screening of herbal constituents for aromatase inhibitory activity” (Bioorg Med Chem, 2008)

These compounds were tested against T1, Aromatase (Homo sapiens, UniProt P11511) (assay: Inhibition of human aromatase by fluorometric assay).
T1 sequence (P11511 whole entry): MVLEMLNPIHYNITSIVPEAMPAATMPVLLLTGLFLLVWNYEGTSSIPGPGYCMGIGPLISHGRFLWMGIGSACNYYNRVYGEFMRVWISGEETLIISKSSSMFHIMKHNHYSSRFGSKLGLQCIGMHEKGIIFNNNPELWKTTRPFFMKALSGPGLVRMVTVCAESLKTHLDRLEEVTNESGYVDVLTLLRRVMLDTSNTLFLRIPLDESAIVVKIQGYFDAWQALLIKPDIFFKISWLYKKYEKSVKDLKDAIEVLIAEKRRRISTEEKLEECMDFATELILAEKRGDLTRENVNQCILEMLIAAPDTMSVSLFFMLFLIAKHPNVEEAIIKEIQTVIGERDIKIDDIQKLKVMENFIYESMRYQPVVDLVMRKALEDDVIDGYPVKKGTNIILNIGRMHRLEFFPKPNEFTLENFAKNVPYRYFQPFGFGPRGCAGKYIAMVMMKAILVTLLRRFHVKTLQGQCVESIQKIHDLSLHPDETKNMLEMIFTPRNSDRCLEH

Row | Compound | IC50 [µM]
1 | O=c1c(O)c(-c2ccc(O)c(O)c2)oc2c(O)c(O)cc(O)c12 [GOSSYPETIN] | 11
2 | O=C1C[C@@H](c2ccc(O)cc2)Oc2cc(O)ccc21 [LIQUIRTIGENIN] | 0.34
3 | O=c1c(O)c(-c2cc(O)c(O)c(O)c2)oc2cc(O)cc(O)c12 [MYRICETIN] | 10

Each compound was assayed against T1, Aromatase (assay: Inhibition of human aromatase expressed in CHO cells).
Type: cell-based

Row | Compound | Ki [µM]
4 | O=c1c(-c2ccc(O)cc2)coc2cc(O)ccc12 [DAIDZEIN] | 100
5 | O=c1c(O)c(-c2ccccc2)oc2cc(O)cc(O)c12 [GALANGIN] | 100
6 | O=c1c(-c2ccc(O)cc2)coc2cc(O)cc(O)c12 [GENISTEIN] | 100
